{
  "source": "patent US20080188666A1",
  "about": "“LINEAR PHENYL-SUBSTITUTED INDAZOLES AND INDOLES, A PROCESS FOR THEIR PRODUCTION AND THEIR USE AS ANTI-INFLAMMATORY AGENTS” (priority 2006, published 2008)",
  "key": {"[1]": {"target": "T1, glucocorticoid receptor (GR) (Homo sapiens, UniProt P04150)", "T1 construct": "made in house; host or cells: Sf9 cells infected with recombinant baculovirus (cytosol preparation)", "T1 sequence (P04150 1-777)": "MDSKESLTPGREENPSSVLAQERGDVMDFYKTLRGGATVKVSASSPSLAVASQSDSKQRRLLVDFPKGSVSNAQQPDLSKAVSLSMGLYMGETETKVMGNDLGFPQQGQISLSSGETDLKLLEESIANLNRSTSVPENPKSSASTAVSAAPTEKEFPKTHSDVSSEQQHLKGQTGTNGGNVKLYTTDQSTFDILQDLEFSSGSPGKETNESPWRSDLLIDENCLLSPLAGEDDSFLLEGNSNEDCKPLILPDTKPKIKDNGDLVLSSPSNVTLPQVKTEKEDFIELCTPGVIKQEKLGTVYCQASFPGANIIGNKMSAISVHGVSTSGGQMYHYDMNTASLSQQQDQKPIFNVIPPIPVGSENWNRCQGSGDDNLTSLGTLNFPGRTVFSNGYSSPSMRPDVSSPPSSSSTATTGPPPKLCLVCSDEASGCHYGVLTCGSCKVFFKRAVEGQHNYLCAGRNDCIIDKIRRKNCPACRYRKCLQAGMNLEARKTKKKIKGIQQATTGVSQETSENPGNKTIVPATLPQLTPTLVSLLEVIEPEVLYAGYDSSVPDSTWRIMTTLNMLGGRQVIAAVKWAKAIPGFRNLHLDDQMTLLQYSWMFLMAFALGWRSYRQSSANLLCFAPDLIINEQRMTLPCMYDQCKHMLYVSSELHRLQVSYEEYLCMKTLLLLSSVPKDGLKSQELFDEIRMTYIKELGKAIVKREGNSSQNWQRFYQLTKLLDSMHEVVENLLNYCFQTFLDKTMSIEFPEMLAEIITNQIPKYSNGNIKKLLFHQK", "assay": "binding to recombinantly produced glucocorticoid receptor, Sf9 cytosol, [3H]-dexamethasone reference", "details": "recombinant GR", "from_the_text": "(§1) The binding of the substances to the glucocorticoid receptor (GR) and other steroid hormone receptors (mineral corticoid receptor (MR), progesterone receptor (PR) and androgen receptor (AR)) is examined with the aid of recombinantly produced receptors. Cytosol preparations of Sf9 cells, which had been infected with recombinant baculoviruses, which code for the GR, are used for the binding studies. In comparison to reference substance [^3H]-dexamethasone, the substances show a high to very high affinity to GR. IC50(GR)=6.0 nM was thus measured for the compound from Example B7; IC50(MR), IC50(PR), IC50(AR)>1 μmol."}, "[2]": {"target": "T2, mineral corticoid receptor (MR) (Homo sapiens, UniProt P08235)", "T2 construct": "made in house", "T2 sequence (P08235 1-984)": "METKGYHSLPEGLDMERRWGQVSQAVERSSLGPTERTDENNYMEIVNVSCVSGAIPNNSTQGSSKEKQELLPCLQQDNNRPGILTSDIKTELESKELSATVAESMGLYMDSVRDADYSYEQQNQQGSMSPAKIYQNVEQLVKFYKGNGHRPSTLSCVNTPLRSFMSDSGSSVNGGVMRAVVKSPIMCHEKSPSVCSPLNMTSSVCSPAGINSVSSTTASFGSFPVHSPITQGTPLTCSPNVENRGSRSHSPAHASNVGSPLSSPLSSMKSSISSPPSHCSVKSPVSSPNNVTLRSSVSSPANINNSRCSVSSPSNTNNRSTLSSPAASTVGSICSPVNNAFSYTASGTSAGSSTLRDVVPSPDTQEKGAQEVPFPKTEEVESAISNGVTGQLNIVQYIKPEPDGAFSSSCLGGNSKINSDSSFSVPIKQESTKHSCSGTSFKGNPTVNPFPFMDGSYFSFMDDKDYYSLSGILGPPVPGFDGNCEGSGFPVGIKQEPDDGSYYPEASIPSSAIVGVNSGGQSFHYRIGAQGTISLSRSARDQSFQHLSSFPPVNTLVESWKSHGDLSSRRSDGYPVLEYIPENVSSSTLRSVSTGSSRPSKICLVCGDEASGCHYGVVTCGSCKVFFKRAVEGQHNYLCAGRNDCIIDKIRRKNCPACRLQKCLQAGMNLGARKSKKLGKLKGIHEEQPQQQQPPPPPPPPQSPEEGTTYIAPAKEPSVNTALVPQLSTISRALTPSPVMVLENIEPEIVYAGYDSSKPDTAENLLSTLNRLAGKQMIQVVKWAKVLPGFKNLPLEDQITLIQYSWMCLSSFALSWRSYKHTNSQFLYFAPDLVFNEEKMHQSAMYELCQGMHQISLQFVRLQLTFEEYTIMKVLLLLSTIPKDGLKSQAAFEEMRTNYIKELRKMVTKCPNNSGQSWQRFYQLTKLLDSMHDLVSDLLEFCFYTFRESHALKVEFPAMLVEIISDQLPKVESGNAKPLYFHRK", "assay": "binding to recombinantly produced mineral corticoid receptor", "details": "recombinant receptor", "from_the_text": "as §1"}, "[3]": {"test_system": "secretion of cytokine IL-8 in human monocyte cell line THP-1", "assay": "inhibition of LPS-triggered IL-8 secretion in THP-1 cells (ELISA)", "format": "cell-based", "protocol": "The concentration of the cytokines was determined in the supernatant by means of commercially available ELISA kits."}, "[4]": {"target": "T3, androgen receptor (AR) (Homo sapiens, UniProt P10275)", "T3 construct": "made in house", "T3 sequence (P10275 1-920)": "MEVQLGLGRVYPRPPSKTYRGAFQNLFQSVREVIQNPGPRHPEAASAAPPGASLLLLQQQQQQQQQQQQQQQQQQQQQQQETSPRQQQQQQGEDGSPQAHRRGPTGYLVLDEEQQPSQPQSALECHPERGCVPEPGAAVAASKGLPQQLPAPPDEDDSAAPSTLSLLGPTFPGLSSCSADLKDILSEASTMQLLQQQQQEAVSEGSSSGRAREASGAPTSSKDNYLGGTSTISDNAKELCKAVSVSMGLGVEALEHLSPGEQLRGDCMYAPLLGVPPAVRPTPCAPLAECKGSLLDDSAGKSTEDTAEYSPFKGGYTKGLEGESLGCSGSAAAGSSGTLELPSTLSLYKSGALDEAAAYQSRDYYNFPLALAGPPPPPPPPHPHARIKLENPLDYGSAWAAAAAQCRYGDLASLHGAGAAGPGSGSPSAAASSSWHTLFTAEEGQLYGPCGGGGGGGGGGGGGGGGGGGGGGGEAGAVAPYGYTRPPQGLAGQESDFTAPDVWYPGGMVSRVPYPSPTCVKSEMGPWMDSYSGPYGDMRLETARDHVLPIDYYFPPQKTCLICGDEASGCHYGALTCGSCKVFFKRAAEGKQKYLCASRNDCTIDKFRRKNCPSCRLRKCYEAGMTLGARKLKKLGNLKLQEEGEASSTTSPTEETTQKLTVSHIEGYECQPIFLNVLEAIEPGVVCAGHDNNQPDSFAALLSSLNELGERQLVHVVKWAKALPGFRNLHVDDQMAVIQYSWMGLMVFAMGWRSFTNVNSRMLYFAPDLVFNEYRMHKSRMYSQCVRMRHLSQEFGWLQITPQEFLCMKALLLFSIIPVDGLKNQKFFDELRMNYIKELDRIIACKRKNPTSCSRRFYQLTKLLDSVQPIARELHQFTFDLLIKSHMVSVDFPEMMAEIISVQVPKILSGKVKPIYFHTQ", "assay": "binding to recombinantly produced androgen receptor", "details": "recombinant receptor", "from_the_text": "as §1"}, "[5]": {"target": "T4, progesterone receptor (PR) (Homo sapiens, UniProt P06401)", "T4 construct": "made in house", "T4 sequence (P06401 1-933)": "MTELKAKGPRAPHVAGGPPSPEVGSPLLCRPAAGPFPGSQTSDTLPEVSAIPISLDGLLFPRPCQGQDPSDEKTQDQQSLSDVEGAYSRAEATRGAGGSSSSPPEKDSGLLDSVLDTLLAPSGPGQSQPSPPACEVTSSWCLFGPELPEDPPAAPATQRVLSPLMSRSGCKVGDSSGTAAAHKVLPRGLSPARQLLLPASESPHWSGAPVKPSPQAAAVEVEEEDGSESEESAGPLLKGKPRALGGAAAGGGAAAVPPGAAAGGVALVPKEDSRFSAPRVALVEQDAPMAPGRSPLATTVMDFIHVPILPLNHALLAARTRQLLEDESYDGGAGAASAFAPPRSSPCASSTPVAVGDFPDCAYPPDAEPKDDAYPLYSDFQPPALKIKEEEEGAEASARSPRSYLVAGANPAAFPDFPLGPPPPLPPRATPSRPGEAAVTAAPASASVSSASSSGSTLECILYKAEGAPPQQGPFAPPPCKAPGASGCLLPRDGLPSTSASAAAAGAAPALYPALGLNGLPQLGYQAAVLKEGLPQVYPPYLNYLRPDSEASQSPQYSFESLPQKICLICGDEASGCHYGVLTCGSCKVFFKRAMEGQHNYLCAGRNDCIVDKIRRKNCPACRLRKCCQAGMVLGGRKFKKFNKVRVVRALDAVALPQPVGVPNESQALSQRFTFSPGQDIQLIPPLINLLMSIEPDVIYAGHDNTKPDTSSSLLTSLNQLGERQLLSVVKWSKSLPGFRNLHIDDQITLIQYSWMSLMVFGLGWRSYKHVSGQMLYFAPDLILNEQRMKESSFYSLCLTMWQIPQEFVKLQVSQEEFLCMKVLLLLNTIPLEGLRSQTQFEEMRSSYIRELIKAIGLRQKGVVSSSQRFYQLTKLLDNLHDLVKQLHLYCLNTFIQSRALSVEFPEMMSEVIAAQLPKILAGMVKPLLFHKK", "assay": "binding to recombinantly produced progesterone receptor", "details": "recombinant receptor", "from_the_text": "as §1"}},
  "data": [
    {"compound": "CC(C)(CC(O)(CNc1cccc2c1cnn2-c1ccc(F)nc1)C(F)(F)F)c1cc(F)ccc1O", "note": "(stereo not drawn) [Example B7, 4-(5-Fluoro-2-hydroxyphenyl)-4-methyl-1-{[1-(6-fluoropyridin-3-yl)indazol-4-yl]amino}-2-(trifluoromethyl)pentan-2-ol]", "values": [
      {"measurement": "IC50", "setting": "[1]", "result": 6, "unit": "nM"},
      {"measurement": "IC50", "setting": "[2]", "result": "> 1000", "unit": "nM"},
      {"measurement": "IC50", "setting": "[3]; Homo sapiens, THP-1, supernatant ELISA, read-out: IC50(IL8)", "result": 0.72, "unit": "nM"},
      {"measurement": "eff. relative to dexamethasone (IL-8 inhibition)", "setting": "[3]; THP-1", "result": 97, "unit": "%"},
      {"measurement": "IC50", "setting": "[4]", "result": "> 1000", "unit": "nM"},
      {"measurement": "IC50", "setting": "[5]", "result": "> 1000", "unit": "nM"}
    ]}
  ]
}
